Reference: publication PMC6155272, “Chroman-4-One Derivatives Targeting Pteridine Reductase 1 and Showing Anti-Parasitic Activity” (Molecules : A Journal of Synthetic Chemistry and Natural …, 2017)

Assays:
[1] = test system: T. brucei bloodstream forms; assay: Activity against T. brucei bloodstream forms (resazurin-based assay); assay type: cell-based, Trypanosoma brucei; settings: Trypanosoma brucei; read-out: IC50 (reference compound for T. brucei)
Protocol: The efficacy of compounds against T. brucei bloodstream forms was evaluated using a modified resazurin-based assay previously described in literature.

[2] = test system: L. infantum (MHOM/BR/1972/BH46) intracellular amastigotes; assay: Activity against L. infantum intramacrophage amastigotes (high-content imaging); assay type: cell-based, Leishmania infantum; settings: Leishmania infantum; read-out: IC50 (reference compound for L. infantum)
Protocol: […] THP-1 cells were plated onto 384-well plates in Roswell Park Memorial Institute (RPMI) 1640 medium, Hyclone, GE Healthcare Life Sciences (Issaquah, WA, USA) containing 50 ng/mL phorbol 12-myristate 13-acetate (PMA, Sigma-Aldrich, Saint Louis, MS, USA), and incubated for 48 h. Then, 6 day-old promastigotes were added, at a ratio of 50 parasites per each THP-1 cell seeded earlier. After 24 h of infection, negative controls (0.5% DMSO), positive controls (10 μM amphotericin B) or compounds were added to the plate. Assay plates were incubated for 48 h, and then fixed with 4% paraformaldehyde and stained with Draq 5. The Operetta high-content automated imaging system was used to acquire images and the Harmony Software was optimized to quantify the host cell number, the infection ratio and the number of parasites per infected cell. The ratio between infected cells and total number of cells is then calculated, and defined as the Infection Ratio (IR). The raw data for IR values was normalized to negative—DMSO (mock)-treated infected cells—and positive (non-infected cells) controls to determine the normalized antiparasitic activity.

[3] = target: T1, Trypanosoma brucei pteridine reductase 1 (TbPTR1) (Trypanosoma brucei brucei, UniProt O76290); settings: flavonols 1A–3A, cited from earlier work; for IC50: evaluated as in previous paper
T1 construct: made in house
T1 sequence (O76290 1-268): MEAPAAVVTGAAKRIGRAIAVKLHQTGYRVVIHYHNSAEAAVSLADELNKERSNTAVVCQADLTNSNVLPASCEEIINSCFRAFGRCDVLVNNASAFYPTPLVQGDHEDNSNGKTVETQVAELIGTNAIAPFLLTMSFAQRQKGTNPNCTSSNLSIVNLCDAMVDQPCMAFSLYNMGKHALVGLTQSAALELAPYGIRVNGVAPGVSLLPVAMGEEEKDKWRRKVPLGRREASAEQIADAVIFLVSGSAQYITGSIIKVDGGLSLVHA

[4] = target: T2, Leishmania major pteridine reductase 1 (LmPTR1) (Leishmania major, UniProt Q01782); settings: flavonols 1A–3A, cited from earlier work; for IC50: evaluated as in previous paper
T2 construct: made in house
T2 sequence (Q01782 1-288): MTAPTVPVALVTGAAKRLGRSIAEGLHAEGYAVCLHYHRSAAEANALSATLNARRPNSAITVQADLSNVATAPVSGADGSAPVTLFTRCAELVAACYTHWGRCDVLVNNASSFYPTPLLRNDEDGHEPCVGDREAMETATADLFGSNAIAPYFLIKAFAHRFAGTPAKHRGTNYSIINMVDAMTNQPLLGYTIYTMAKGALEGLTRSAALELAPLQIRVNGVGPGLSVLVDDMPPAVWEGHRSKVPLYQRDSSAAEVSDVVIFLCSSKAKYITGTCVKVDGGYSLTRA

[5] = target: T1, Trypanosoma brucei pteridine reductase 1 (TbPTR1); assay: TbPTR1 enzyme reporter assay (cytochrome-c reduction, 550 nm); assay type: biochemical; settings: read-out: % Inhibition TbPTR1 (50 μM), 50 μM; compounds 1–3 and control
Protocol: (§1) TbPTR1 and LmPTR1 were purified as reported in literature. The enzyme kinetic profile of each selected protein was characterized by a spectrophotometric assay. The experimental assay consists of enzyme kinetic reaction monitoring at 340 nm for a total time of 180 s. The enzyme kinetic activity was measured at steady-state concentration of 7,8-dihydro-L-biopterin (H2B) and NADPH substrates equal to 50 and 120 µM and varying the enzyme concentration in the 0.001–0.006 µM and 0.005–0.010–0.015–0.020–0.025–0.030 µM range for Lm- and TbPTR1, respectively. The resulting kcat values were equal to 0.68 (s^−1) and 7.2 (s^−1) for Tb- and LmPTR1, respectively. For both TbPTR1 and LmPTR1, the Km value evaluation assay for H2B- and NADPH-substrates was performed in the 0.3-0.6–0.9–1.2–2.4–4.8 µM and 3.0–6.0–12.0–40.0–90.0–190.0 µM concentrations range, respectively.
(§2) Compounds 1A–3A were evaluated as reported in our previous paper. The novel synthesized compounds 1–3 were tested towards TbPTR1 and LmPTR1 using the in vitro TbPTR1/LmPTR1 enzyme reporter assay. The experimental procedure consists of monitoring the non-enzymatic reduction reaction of cytochrome-c at 550 nm, related to the reduction reaction of H2B to tetrahydrobiopterin (H4B) by using NADPH as the cofactor. TbPTR1 and LmPTR1 enzyme activity was assayed in a buffer containing 20 mM sodium citrate (pH 6.0) in a final experimental volume equal to 600 µL. The final reaction mixture contained different substrates added in the following order: TbPTR1/LmPTR1 (0.018 µM/0.002 µM) in 20 mM Tris-HCl, glycerol 10% (v/v), pH 7.5; H2B at a final concentration equal to 0.3 µM; cytochrome-c (80 µM); Milli-Q water to a final volume of 600 µL and NADPH to a final concentration of 500 µM. Before the addition of NADPH, the reaction mixture was incubated for 10 min at 30 °C and 80 RPM. To allow the starting of the reaction, NADPH was added and the enzyme reaction was detected for a total time of 10 min at 30 °C, 550 nm. The inhibition profile characterization of compounds 1–3 was performed with a DU-640 spectrophotometer (Beckman Coulter, Brea, CA, USA). Each compound was assayed in duplicate against Tb/LmPTR1 target enzymes in the 0–10–25–50–80–150 µM concentrations range. At the different concentration values, the compounds were added to the reaction mixture (enzyme, H2B, cytochrome-c in 20 mM sodium citrate buffer and Milli-Q water) and incubated for 10 min at 30 °C, 80 RPM. The reaction was initiated by the addition of NADPH (500 µM) and monitored for 10 min at 30 °C, 550 nm. The absorbance values were processed by software analysis and transformed into the corresponding slopes. The percentages of inhibition and the IC50 values were determined.

[6] = target: T2, Leishmania major pteridine reductase 1 (LmPTR1); assay: LmPTR1 enzyme reporter assay (cytochrome-c reduction, 550 nm); assay type: biochemical; settings: read-out: % Inhibition LmPTR1 (50 μM)
Protocol: as §1, §2

[7] = target: the molecule itself; assay: crystal structure; LmPTR1-NADP+ ternary complexes with compound 1 and with compound 3; hanging drop, 293 K, 12% PEG 4600, 100 mM sodium acetate pH 5.5, 120-160 mM calcium acetate; compounds soaked into pre-formed crystals; one homotetramer in the asymmetric unit
[8] = target: the molecule itself; assay: crystal structure; TbPTR1-NADP+-compound 1 ternary complex; sitting drop, room temperature, 1.5-2.5 M sodium acetate, 0.1 M sodium citrate pH 5.0; compound soaked into pre-formed crystals; one homotetramer in the asymmetric unit

Work on `N=C(N)c1ccc(OCCCCCOc2ccc(C(=N)N)cc2)cc1` [pentamidine, reference compound] yielded an IC50 [1] of 0.00155 ± 0.00024 µM.

`CCCCCCCCCCCCCCCCOP(=O)([O-])OCC[N+](C)(C)C` [miltefosine, reference compound] showed an IC50 [2] of 2.65 ± 0.4 µM.

For `O=c1c(O)c(-c2ccc(O)c(O)c2)oc2ccc(O)cc12` [Compound 3A], the “% Inhibition TbPTR1 (50 μM)” value [3] is given as 53.1%, the IC50 [3] is given as 38 µM and the “% Inhibition LmPTR1 (50 μM)” value [4] is given as 75.4%. The IC50 [4] was 35 µM.

For `O=c1c(O)c(-c2ccc(O)cc2)oc2ccc(O)cc12` [Compound 2A], the “% Inhibition TbPTR1 (50 μM)” value [3] is given as 2.6% and the “% Inhibition LmPTR1 (50 μM)” value [4] is given as 10.8%.

In the case of `O=c1c(O)c(-c2cccc(O)c2)oc2ccc(O)cc12` [Compound 1A], the “% Inhibition TbPTR1 (50 μM)” value [3] is listed as 96.1%, the IC50 [3] is listed as 4.3 µM and the “% Inhibition LmPTR1 (50 μM)” value [4] is listed as 86.2%. For the same molecule, the IC50 [4] was 12.5 µM.

`CCc1nc(N)nc(N)c1-c1ccc(Cl)cc1` [pyrimethamine, reference compound] showed an inhibition at 50 µM [5] of 100% and an inhibition at 50 µM [6] of 100%.

B1: Leishmania major pteridine reductase 1 (enzyme)
chain: T2 sequence (Q01782 1-288)
notes: pteridine reductase 1 (PTR1) of Leishmania major; Crystallised with NADPH/NADP+ and soaked with compound 1 or 3 (small molecules); also called LmPTR1; PTR1; source: expressed and purified as reported in literature [14]
For B1, the “stoichiometry N” value [7] was 4.

B2: Trypanosoma brucei pteridine reductase 1 (enzyme)
chain: T1 sequence (O76290 1-268)
modifications: oxo-cysteine at residue 168
notes: pteridine reductase 1 (PTR1) of Trypanosoma brucei; Crystallised with the cofactor NADP+ and soaked with compound 1 (small molecules); also called TbPTR1; PTR1; source: expressed and purified as reported in literature [14]
For B2, the “stoichiometry N” value [8] was 4.
